# From US12441704B2, “Compounds active towards nuclear receptors” (NUEVOLUTION A/S, priority 2019, dated 2025)
# Where two headings read alike, the source gives them in different places.
# What was measured:
# [1] = system: IL-17A secretion in activated PBMCs; assay: IL-17A secretion in activated PBMCs; format: cell-based, human; settings: human PBMCs stimulated with CD3/CD28 Dynabeads for 48 h, absolute IC50
# How it was run: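 Human PBMCs from healthy donors, 40,000 cells/well, were preincubated 30 min with compound in 10-point 5-fold dilutions (0.1% DMSO), then stimulated 48 h at 37° C with CD3/CD28 beads (1:1). Supernatant IL-17A was read by bead immunoassay on a flow cytometer. Inhibition was normalized to activated DMSO (top) and GNE09461 10 μM (basal).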
# plasma IL-17A = assay: In vivo IL-17A induction in anti-CD3 model in mice; settings: oral gavage twice daily day 0 to day 3, C57BL/6JRj mice
# Protocol: Male C57BL/6JRj mice (7 week old) were purchased from Janvier Labs and housed at the animal facilities of Almirall throughout the study. Animals were allowed to condition for 5 days in their new environment at 22° C.±2° C., 55%±10% relative humidity and 12 h: 12 h light:dark cycles. Animals were housed in polycarbonate cages, with free access to water and non-purified stock diet (2014 Teklad Global 14% Protein Rodent Maintenance Diet, Envigo) during the full course of the studies. Care of animals was undertaken in compliance with the European Committee Directive 2010/63/EU, and the Catalan and Spanish law. All procedures were performed according to the ARRIVE guidelines (Animal Research: Reporting of In Vivo Experiments) and with approval from the Animal Experimentation Ethical Committee of Almirall (Barcelona, Spain).
# Mice were injected intraperitoneally with 7.5 μg of anti-CD3e (Clone 145-2C11 from Pharmingen BD) at 0 h (day 0) and […] (day 3) time-points. The non-induced-group were injected with PBS instead of anti-CD3e. At study completion (4 h after anti-CD3e injection), animals were anaesthetized with isofluorane (Baxter) and 0.5-1 mL blood samples were drawn by intracardiac puncture in heparinized tubes. Plasma samples were stored at −80° C. for subsequent analysis.
# Test compounds were freshly suspended in sterile 0.5% methylcellulose 0.1% tween-80 solution (10 mL/kg body weight). […]
# Plasma levels of IL-17A were measured by ELISA (R&D Systems) according to the manufacturer's instruction. Results were calculated as the percentage of reduction of plasma IL-17A versus the difference between non-induced and anti-CD3e induced groups through the formula: inhibition=100*[1−[(x−mean non-induced)/(mean control vehicle−mean non-induced)]]. The IL-17A inhibition for each treatment can be expressed as the mean for each treatment group±S.E.M. Statistical analysis of data were conducted with one-way ANOVA followed by Dunnett's multiple comparisons test when appropriate. […]
# [2] = target: T1, RORγ ligand-binding domain fused to Gal4 (Homo sapiens, UniProt P51449); assay: RORγ Reporter Assay (Gal4); format: cell-based
# T1 construct: Gal4 (galactose-responsive transcription factor); expressed in transfected cells; host or cells: HEK293
# T1 sequence (P51449 269-508 limits assumed): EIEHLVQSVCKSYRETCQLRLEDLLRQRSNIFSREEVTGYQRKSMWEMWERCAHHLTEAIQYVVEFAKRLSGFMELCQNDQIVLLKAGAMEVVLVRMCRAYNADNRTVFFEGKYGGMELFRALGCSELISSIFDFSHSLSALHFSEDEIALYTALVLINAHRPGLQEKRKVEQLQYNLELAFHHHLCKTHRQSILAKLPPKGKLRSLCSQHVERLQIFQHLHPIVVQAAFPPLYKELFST
# How it was run: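 Percent inhibition was derived from luciferase RLU versus vehicle mean after 24 h compound incubation (37 °C, 0.1% DMSO). The cells were HEK293, transiently co-expressing a Gal4–RORγ ligand-binding-domain fusion plus a UAS-driven luciferase gene.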
# [3] = target: T1, RORγ ligand-binding domain fused to Gal4; settings: cited from earlier work
# [4] = system: Collagen-induced arthritis; assay: Collagen-induced arthritis (CIA) study; format: in vivo; settings: 3 mpk p.o. b.i.d.; DBA/1J mice
# Protocol: Collagen-induced arthritis is an animal model of rheumatoid arthritis used to evaluate the efficacy of test compounds. CIA was induced at Washington Biotechnology Inc. (Baltimore) in male DBA/1J mice (Jackson Laboratories) by subcutaneous injection at the base of the tail with 50 μl of a bovine collagen/complete Freund's adjuvant emulsion. After 21 days, the mice were further boosted by a further subcutaneous injection of 50 μl of a collagen/incomplete Freund's adjuvant emulsion. For treatment, compound or vehicle (2% DMSO, 10% HP-β-CD in MilliQ water) was given orally twice daily at various doses selected from 3, 10, 30 mg/kg, beginning at the day of CIA induction (Prophylactic setting), or after disease initiation (at day 27, therapeutic setting). Treatment lasted until day 41, and the animals were scored three times weekly. Each paw was scored and the sum of all four scores was recorded as the Arthritic Index (AI). The maximum possible AI was 16. 0=no visible effects of arthritis; 1=edema and/or erythema of one digit; 2=edema and/or erythema of 2 joints; 3=edema and/or erythema of more than 2 joints; 4=severe arthritis of the entire paw and digits including limb deformation and ankylosis of the joint. The Arthritis Index for each treatment can be expressed as the mean score for each treatment group+/−S.E.M.
# Th17 cells = assay: Th17 Assay (IL-17 levels in supernatants of differentiating Th17 cells); format: cell-based; settings: 168 h; human naive CD4+ T cells differentiated to Th17 for seven days; IL-17 in supernatants by ELISA
# Protocol: The following modifications were made to the manufacturer's protocol: 1) Incubation with Biotin-Antibody Cocktail and Anti-Biotin MicroBeads was prolonged to 30 minutes, and 2) Cells were washed with 40 mL of Miltenyi buffer. […] Test compounds were tested in triplicates, diluted 1000-fold in medium (final DMSO concentration is 0.1%). Incubated for seven days at 37° C., 5% CO2, 95% humidity, and 2-fluoro-4′-[[4-(4-pyridinylmethyl)-1-piperazinyl]methyl]-α,α-bis(trifluoromethyl)-[1,1′-biphenyl]-4-methanol (SR2211 Calbiochem, Cat. No. 557353) was used as positive control. As negative control, cells were differentiated into Th0 using 5 μg/ml anti-CD28 (BD Pharmingen), 10 ng/ml IL-2 (R&D Systems), 2 μg/ml anti-ILA (R&D Systems) and 2 μg/ml anti-IFNγ (R&D Systems) are negative control. IL-17 levels in supernatants were measured with ELISA (R&D Systems).
# [5] = RORγ Gal4 assay EC50, Examples in <100 range, Examples of WO2016020288, based on % inhibition at 0.1 and/or 1 uM (Table 5 c, footnote 4)
# [6] = RORγ Gal4 assay EC50, Examples in <500 range, Examples of WO2016020288, based on % inhibition at 0.1 and/or 1 uM (Table 5 c, footnote 5)
# [7] = comparison examples of WO2016020288 (footnote 1)
# [8] = comparison compounds of WO2016020288, source marked WO2016020288
# [9] = HEK293 cells co-transfected with RORγ LBD-Gal4 and luciferase reporter, 24 h incubation, absolute EC50, read-out: EC50
# [10] = compounds of the present disclosure, value from Table 2 herein, read-out: Gal4 assay EC50
SMILES,"EC50 [2, 5]","EC50 [2, 6]","EC50 [3, 7]",other results
"CCN(Cc1ccc(C(F)(F)F)cc1F)c1ncnc(NC[C@]2(O)CCN(CC(N)=O)C[C@H]2O)c1F (single isomer, unassigned) [Example D5-03-1-1]",–,–,–,"IC50 ([1]; Homo sapiens, PBMC, 48 h): 3 nM; Inhibition of IL-17A (%) at 3 mg/kg (plasma IL-17A): 93%"
"NC(=O)CN1CC[C@@H](CNc2ncnc(N(Cc3ccc(C(F)(F)F)cc3)C3CC3)c2F)[C@H](O)C1 (single isomer, unassigned) [Example A7-01-1]",–,–,–,"EC50 ([2]; compounds of the present disclosure, source: Table 2 herein, read-out: Gal4 assay EC50): < 100 nM; IC50 ([1]; Homo sapiens, PBMC, 48 h): 6.3 nM; Inhibition of IL-17A (%) at 3 mg/kg (plasma IL-17A): 80%; reduction in AI (Arthritic Index) as compared to the anti-IL-17A antibody [4]: 74%"
"CCN(Cc1ccc(C(F)(F)F)cc1)c1ncnc(NC[C@]2(O)CCN(CC(N)=O)C[C@H]2O)c1F (single isomer, unassigned) [Example D5-01-1-1]",–,–,–,IC50 [1]: 1.9 nM; Inhibition of IL-17A (%) at 3 mg/kg (plasma IL-17A): 92%
"NC(=O)C(CO)N1CCC(O)(CNc2ncnc(N(Cc3ccc(C(F)(F)F)cc3)C3CC3)c2F)CC1 (stereo not drawn) [Example A7-68, 2-(4-(((6-(cyclopropyl(4-(trifluoromethyl)benzyl)amino)-5-fluoropyrimidin-4-yl)amino)methyl)-4-hydroxypiperidin-1-yl)-3-hydroxypropanamide]",–,–,–,"EC50 [2, 9]: 20 nM; IC50 ([1]; Homo sapiens, PBMC, 48 h): 21 nM"
"NC(=O)CN1CC[C@H](CNc2ncnc(N(Cc3ccc(C(O)(C(F)(F)F)C(F)(F)F)cc3)C3CC3)c2F)[C@@H](O)C1 (stereo in doubt) [Example A7-54-2, rel-2-((3R,4R)-4-(((6-(cyclopropyl(4-(1,1,1,3,3,3-hexafluoro-2-hydroxypropan-2-yl)benzyl)amino)-5-fluoropyrimidin-4-yl)amino)methyl)-3-hydroxypiperidin-1-yl)acetamide]",–,–,–,"EC50 [2, 9]: 2.5 nM; IC50 ([1]; Homo sapiens, PBMC, 48 h): 6.2 nM"
"NC(=O)CN1CCC(CO)(CNc2ncnc(N(Cc3ccc(C(F)(F)F)cn3)C3CC3)c2F)CC1 [Example A7-52, 2-(4-(((6-(cyclopropyl((5-(trifluoromethyl)pyridin-2-yl)methyl)amino)-5-fluoropyrimidin-4-yl)amino)methyl)-4-(hydroxymethyl)piperidin-1-yl)acetamide]",–,–,–,"EC50 [2, 9]: 42 nM; EC50 [2, 10]: < 100 nM; IC50 ([1]; Homo sapiens, PBMC, 48 h): 130 nM"
"NC(=O)CN1CCC(CNc2ncnc(N(Cc3ccc(C(F)(F)F)cn3)C3CC3)c2F)C(F)(F)C1 (single isomer, unassigned) [Example A7-03-1]",–,–,–,"EC50 [2, 10]: < 100 nM; EC50 (Th17 cells): 83 nM"

# Further lines, with some results ahead:
"EC50 [2, 5]","EC50 [2, 6]",SMILES,"EC50 [3, 7]",other results
< 100 nM,< 500 nM,"NC(=O)Cc1ccc(CNc2ncnc(N(Cc3ccc(C(F)(F)F)nc3)C3CC3)c2F)cc1 [Example A83, reference compound]",< 100 nM,–
< 100 nM,< 500 nM,"NC(=O)Cc1ccc(CNc2ncnc(N(Cc3ccc(C(F)(F)F)cc3)C3CC3)c2F)cc1 [Example A2, reference compound]",–,"EC50 [3, 8]: < 100 nM"
–,< 500 nM,"CC(=O)N1CCC(CNc2ncnc(N(Cc3ccc(C(F)(F)F)cc3)C3CC3)c2F)CC1 [Example A11, reference compound]",–,"EC50 [3, 8]: < 100 nM"
< 100 nM,< 500 nM,"CS(=O)(=O)N1CCC(CNc2ncnc(N(Cc3ccc(C(F)(F)F)cc3)C3CC3)c2F)CC1 [Example A7, reference compound]",–,"EC50 [3, 8]: < 100 nM"
< 100 nM,< 500 nM,"NC(=O)Cc1ccc(CNc2ncnc(N(Cc3cnc(C(F)(F)F)nc3)C3CC3)c2F)cc1 [Example A98, reference compound]",< 100 nM,–
–,< 500 nM,"NC(=O)CC1CC(CNc2ncnc(N(Cc3ccc(C(F)(F)F)cc3)C3CC3)c2F)C1 (stereo not drawn) [Example A95, reference compound]",–,"EC50 [3, 8]: < 500 nM"
< 100 nM,< 500 nM,"CN(Cc1cccc(OC(F)(F)F)c1)c1ncnc(NCc2ccc(CC(N)=O)cc2)c1F [Example A128, reference compound]",< 100 nM,–
< 100 nM,< 500 nM,"CC(c1ccc(C(F)(F)F)cc1)N(c1ncnc(NCc2ccc(CC(N)=O)cc2)c1F)C1CC1 (stereo not drawn) [Example A3, reference compound]",< 100 nM,–
< 100 nM,< 500 nM,"NC(=O)Cc1ccc(CNc2ncnc(N(Cc3cccc(OC(F)(F)F)c3)C3CC3)c2F)cc1 [Example A102, reference compound]",< 100 nM,–
< 100 nM,< 500 nM,"OC1(CNc2ncnc(N(Cc3ccc(C(F)(F)F)cc3)C3CC3)c2F)CCC(F)(F)CC1 [Example A44, reference compound]",–,"EC50 [3, 8]: < 100 nM"
< 100 nM,< 500 nM,"NC(=O)Cc1ccc(CNc2ncnc(N(Cc3ccc(C(F)(F)F)cn3)C3CC3)c2F)cc1 [Example A85, reference compound]",< 100 nM,–
